Results: PubChem BioAssay AID248 (DTP/NCI, 2004)
Values joined by “and” are separate entries in the source; they are usually repeats but may differ in a detail not shown here. Identical values can stand only once. Inconclusive results and toxic doses are left out. No stated cut-off is given here; in the data, active means T/C of 150% or more; inactive means T/C below 125%. Square brackets hold non-standard residues; d marks the D form. Peptide text beside a SMILES is read from it. * marks the point of attachment. ONb = O=[N+]([O-])c1ccc(CO*)cc1; Cbz = O=C(OCc1ccccc1)*; Nva = CCC[CH](N)C(=O)O; Bn = c1ccc(C*)cc1

Tested on: L1210 leukemia ip in BDF1 mice, survival T/C
Experiment: NCI In Vivo Anticancer Drug Screen. Data for tumor model L1210 Leukemia (intraperitoneal) in B6D2F1 (BDF1) mice
Details: endpoint: mean survival time, higher = longer survival
Method in brief: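 Mice bearing the transplanted tumor received compound or vehicle. Survival of the treated group was divided by that of the vehicle-treated control group to give the ratio.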

[1] = dose: 50.0 mg/kg/injection, schedule: Q01DX001 (ip), vehicle: saline
[2] = dose: 100.0 mg/kg/injection, schedule: Q01DX001 (ip), vehicle: saline
[3] = dose: 100.0 mg/kg/injection, schedule: Q04DX003 (ip), vehicle: saline with Tween-80
[4] = dose: 200.0 mg/kg/injection, schedule: Q04DX003 (ip), vehicle: saline with Tween-80
[5] = dose: 400.0 mg/kg/injection, schedule: Q04DX003 (ip), vehicle: saline with Tween-80
[6] = dose: 100.0 mg/kg/injection, schedule: Q04DX002 (ip), vehicle: saline
[7] = dose: 200.0 mg/kg/injection, schedule: Q04DX002 (ip), vehicle: saline
[8] = dose: 400.0 mg/kg/injection, schedule: Q04DX002 (ip), vehicle: saline
[9] = dose: 100.0 mg/kg/injection, schedule: Q04DX003 (ip), vehicle: saline
[10] = dose: 200.0 mg/kg/injection, schedule: Q04DX003 (ip), vehicle: saline
[11] = dose: 100.0 mg/kg/injection, schedule: Q01DX009 (ip), vehicle: saline

Measured: T/C

OCC[N-]CCCN=Cc1ccccc1O.OCC[N-]CCCN=Cc1ccccc1O.[Co+2]
inactive: [1] 96 % of control | [2] 100 % of control

Clc1ccc(P(c2ccc(Cl)cc2)c2ccc(Cl)cc2)cc1
inactive: dose: 100.0 mg/kg/injection, schedule: Q01DX009 (ip), vehicle: saline with Tween-80 87 % of control | [3] 98 % of control | [4] 95 % of control | [5] 97 % of control

CC(NC(=O)NC(C)(C)C)c1ccccc1 (stereo unspecified)
inactive: dose: 100.0 mg/kg/injection, schedule: Q04DX002 (ip), vehicle: Klucel (hydroxypropylcellulose) (HPC) 102 % of control | dose: 200.0 mg/kg/injection, schedule: Q04DX002 (ip), vehicle: Klucel (hydroxypropylcellulose) (HPC) 105 % of control | dose: 400.0 mg/kg/injection, schedule: Q04DX002 (ip), vehicle: Klucel (hydroxypropylcellulose) (HPC) 121 % of control

COc1ccc(/C=C2\N=C(c3ccc([N+](=O)[O-])cc3)OC2=O)cc1Br
inactive: [6] 101 % of control | [7] 104 % of control | [8] 115 % of control

COc1cc(N/C(N)=N\C(N)=NC(C)C)cc(OC)c1OC
inactive: dose: 50.0 mg/kg/injection, schedule: Q01DX009 (ip), vehicle: saline sonified 98 % of control | dose: 100.0 mg/kg/injection, schedule: Q01DX009 (ip), vehicle: saline sonified 101 % of control | [9] 104 % of control | dose: 200.0 mg/kg/injection, schedule: Q01DX009 (ip), vehicle: saline sonified 102 % of control | [10] 110 % of control

CCCC(NC(=O)C(CSCc1ccccc1)NC(=O)OCc1ccccc1)C(=O)OCc1ccc([N+](=O)[O-])cc1 (stereo unspecified) (Cbz-Cys(Bn)-[Nva]-ONb; configuration not given here)
inactive: dose: 100.0 mg/kg/injection, schedule: Q01DX001 (ip), vehicle: other 90 % of control | dose: 200.0 mg/kg/injection, schedule: Q01DX001 (ip), vehicle: other 90 % of control | dose: 400.0 mg/kg/injection, schedule: Q01DX001 (ip), vehicle: other 89 % of control

CCc1ccc(N=C/C=C/c2ccccc2)cc1
inactive: dose: 25.0 mg/kg/injection, schedule: Q01DX009 (ip), vehicle: other 98 % of control | dose: 50.0 mg/kg/injection, schedule: Q01DX009 (ip), vehicle: other 98 % of control | dose: 100.0 mg/kg/injection, schedule: Q01DX009 (ip), vehicle: other 98 % of control and 110 % of control

CCCN(CCC)C(=O)SCC
inactive: dose: 100.0 mg/kg/injection, schedule: Q01DX001 (ip), vehicle: saline with Tween-80 101 % of control | [3] 101 % of control and 105 % of control | dose: 200.0 mg/kg/injection, schedule: Q01DX001 (ip), vehicle: saline with Tween-80 97 % of control | [4] 100 % of control and 101 % of control | dose: 400.0 mg/kg/injection, schedule: Q01DX001 (ip), vehicle: saline with Tween-80 97 % of control | [5] 110 % of control and 117 % of control

Cc1nc(N)nc2c1CCC(=O)N2
inactive: dose: 100.0 mg/kg/injection, schedule: Q04DX003 (ip), vehicle: Klucel (hydroxypropylcellulose) (HPC) 100 % of control | dose: 200.0 mg/kg/injection, schedule: Q04DX003 (ip), vehicle: Klucel (hydroxypropylcellulose) (HPC) 89 % of control | dose: 400.0 mg/kg/injection, schedule: Q04DX003 (ip), vehicle: Klucel (hydroxypropylcellulose) (HPC) 94 % of control

Nc1ccc(-c2nc3nc(N)nc(N)c3nc2-c2ccc(N)cc2)cc1
inactive: dose: 30.0 mg/kg/injection, schedule: Q01DX Z (ip), vehicle: carboxymethylcellulose (CMC) 102 % of control | dose: 60.0 mg/kg/injection, schedule: Q01DX Z (ip), vehicle: carboxymethylcellulose (CMC) 95 % of control | dose: 120.0 mg/kg/injection, schedule: Q01DX Z (ip), vehicle: carboxymethylcellulose (CMC) 104 % of control | dose: 240.0 mg/kg/injection, schedule: Q01DX Z (ip), vehicle: carboxymethylcellulose (CMC) 101 % of control

CC(=O)OCCn1c(C)nc2cc(Cl)c(Cl)cc21
inactive: dose: 100.0 mg/kg/injection, schedule: Q04DX003 (ip), vehicle: acetone 94 % of control | dose: 200.0 mg/kg/injection, schedule: Q04DX003 (ip), vehicle: acetone 98 % of control | dose: 400.0 mg/kg/injection, schedule: Q04DX003 (ip), vehicle: acetone 93 % of control

C[Se]c1nc2c(=O)[nH]c(N)nc2n1C1OC(CO)C(O)C1O (stereo unspecified)
inactive: dose: 100.0 mg/kg/injection, schedule: Q01DX005 (ip), vehicle: saline 107 % of control | dose: 200.0 mg/kg/injection, schedule: Q01DX005 (ip), vehicle: saline 102 % of control

OC(c1ccccc1)(c1ccccc1)c1ccccc1Cl
inactive: [9] 94 % of control | [10] 91 % of control | dose: 400.0 mg/kg/injection, schedule: Q04DX003 (ip), vehicle: saline 91 % of control

CN(C)CCC(=O)c1ccc2cc(Br)c3ccccc3c2c1
inactive: dose: 13.3 mg/kg/injection, schedule: Q01DX Z (ip), vehicle: methylcellulose (MC) 91 % of control | dose: 30.0 mg/kg/injection, schedule: Q01DX Z (ip), vehicle: methylcellulose (MC) 95 % of control

CN(C)c1ccc(C(=O)/C=C/c2ccc([N+](=O)[O-])cc2)cc1
inactive: dose: 100.0 mg/kg/injection, schedule: Q01DX009 (ip), vehicle: Klucel (hydroxypropylcellulose) (HPC) 87 % of control | dose: 200.0 mg/kg/injection, schedule: Q01DX009 (ip), vehicle: Klucel (hydroxypropylcellulose) (HPC) 97 % of control | dose: 400.0 mg/kg/injection, schedule: Q01DX009 (ip), vehicle: Klucel (hydroxypropylcellulose) (HPC) 86 % of control

[CH3][Sn]([CH3])([Cl])[CH2]Cl
inactive: dose: 0.39 mg/kg/injection, schedule: Q01DX009 (ip), vehicle: saline 112 % of control | dose: 0.78 mg/kg/injection, schedule: Q01DX009 (ip), vehicle: saline 119 % of control | dose: 1.56 mg/kg/injection, schedule: Q01DX009 (ip), vehicle: saline 97 % of control and 91 % of control | dose: 3.12 mg/kg/injection, schedule: Q01DX009 (ip), vehicle: saline 87 % of control

CCCCNC(N)=O
inactive: [6] 101 % of control | [7] 96 % of control | [8] 92 % of control

O=S(=O)(C=C(N1CCCCC1)N1CCCCC1)Cc1ccccc1
inactive: dose: 6.25 mg/kg/injection, schedule: Q01DX009 (ip), vehicle: saline 113 % of control | dose: 12.5 mg/kg/injection, schedule: Q01DX001 (ip), vehicle: saline 100 % of control | dose: 12.5 mg/kg/injection, schedule: Q01DX009 (ip), vehicle: saline 106 % of control | dose: 12.5 mg/kg/injection, schedule: Q04DX003 (ip), vehicle: saline 94 % of control | dose: 25.0 mg/kg/injection, schedule: Q01DX001 (ip), vehicle: saline 100 % of control | dose: 25.0 mg/kg/injection, schedule: Q01DX009 (ip), vehicle: saline 103 % of control | dose: 25.0 mg/kg/injection, schedule: Q04DX003 (ip), vehicle: saline 98 % of control | dose: 35.0 mg/kg/injection, schedule: Q01DX009 (ip), vehicle: acetone 101 % of control | [1] 106 % of control

CC[N+](CC)(CC)CCC[N+](CC)(CC)CC
inactive: dose: 30.0 mg/kg/injection, schedule: Q01DX009 (ip), vehicle: water 98 % of control | dose: 50.0 mg/kg/injection, schedule: Q01DX009 (ip), vehicle: water 95 % of control and 96 % of control | dose: 80.0 mg/kg/injection, schedule: Q01DX009 (ip), vehicle: water 98 % of control | dose: 100.0 mg/kg/injection, schedule: Q04DX003 (ip), vehicle: water 103 % of control | dose: 200.0 mg/kg/injection, schedule: Q04DX003 (ip), vehicle: water 99 % of control

CCNC(=O)c1cc[n+](CC)c(/C=C/c2c[nH]c3ccccc23)c1
inactive: dose: 100.0 mg/kg/injection, schedule: Q01DX001 (ip), vehicle: carboxymethylcellulose (CMC) 96 % of control | dose: 200.0 mg/kg/injection, schedule: Q01DX001 (ip), vehicle: carboxymethylcellulose (CMC) 98 % of control | dose: 400.0 mg/kg/injection, schedule: Q01DX001 (ip), vehicle: carboxymethylcellulose (CMC) 100 % of control

C=C(Br)C(C)N (stereo unspecified)
inactive: [11] 104 % of control

CC[N+](C)(C)c1ncnc2nc[nH]c12
inactive: dose: 50.0 mg/kg/injection, schedule: Q01DX009 (ip), vehicle: saline 103 % of control | dose: 50.0 mg/kg/injection, schedule: Q04DX003 (ip), vehicle: saline 95 % of control | [2] 106 % of control | [11] 110 % of control | [9] 100 % of control | dose: 200.0 mg/kg/injection, schedule: Q01DX001 (ip), vehicle: saline 111 % of control | [10] 96 % of control
